The source of these data is PubChem BioAssay (NCI).

Test systems include NCI-H460 lung; T-47D breast; UACC-257 melanoma; KM12 colon; LOX IMVI melanoma; RXF 393 renal; MALME-3M melanoma; SK-OV-3 ovarian; HL-60(TB) leukemia; MDA-MB-231 breast.
What all share (test): growth of human tumour cells (NCI), 48 h

“And” between values parts separate entries of the source, which are not always exact repeats. Identical values can stand only once.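 Results reflect a 48-hour exposure of cells in 96-well plates to compound at five concentrations. At the GI50, growth is halved. TGI: concentration producing complete growth inhibition.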

As to `O=C(CCC(C(=O)c1ccccc1)c1ccccc1)c1ccccc1` (stereo not given), the GI50 with NCI-H460 lung was 6.5 µM; with T-47D breast, 7.69 µM; in the test with UACC-257 melanoma, 17.5 µM; in the test on KM12 colon, 3.94 µM; in the test on LOX IMVI melanoma, 20.7 µM; in the test on RXF 393 renal it was 11.8 µM. Besides, the GI50 with MALME-3M melanoma is 5.51 µM; in the test with SK-OV-3 ovarian, 78.8 µM; with HL-60(TB) leukemia, 4.72 µM; with MDA-MB-231 breast, 23.4 µM. Further, the TGI in the test with NCI-H460 lung, in the test with T-47D breast, in the test on UACC-257 melanoma, in the test on KM12 colon, in the test with LOX IMVI melanoma and with RXF 393 renal was above 100 µM each time. Also, the TGI in the test on MALME-3M melanoma is 63.8 µM; with SK-OV-3 ovarian, above 100 µM; with HL-60(TB) leukemia, 55.9 µM; in the test on MDA-MB-231 breast, above 100 µM.
Take `CN(C)CCCNC(=O)c1cncnc1Nc1ccc(OCc2cccc(F)c2)c(Cl)c1`: the GI50 with NCI-H460 lung is 1.71 µM; with T-47D breast, 1.82 µM; in the test on UACC-257 melanoma, 1.89 µM; in the test on KM12 colon, 1.74 µM; in the test with LOX IMVI melanoma, 1.44 µM; with RXF 393 renal it was 1.51 µM. The GI50 in the test with MALME-3M melanoma was 1.64 µM; in the test on SK-OV-3 ovarian, 1.72 µM; in the test on HL-60(TB) leukemia, 1.67 µM; with MDA-MB-231 breast, 1.69 µM. For the same compound, the TGI in the test on NCI-H460 lung was determined as 3.13 µM; with T-47D breast, 4.28 µM; with UACC-257 melanoma, 3.83 µM; in the test on KM12 colon, 3.33 µM; in the test on LOX IMVI melanoma, 2.81 µM; in the test on RXF 393 renal, 2.87 µM. The TGI in the test on MALME-3M melanoma came to 3.02 µM; with SK-OV-3 ovarian it was 3.23 µM; in the test with HL-60(TB) leukemia, 3.52 µM; in the test on MDA-MB-231 breast, 3.14 µM.
With `COc1ccc(-c2nc(N3CCN(C(=O)C4CCCCC4)CC3)c3c4c(sc3n2)CCCC4)cc1`, the GI50 with NCI-H460 lung is above 100 µM; in the test with T-47D breast, 20.6 µM; in the test on UACC-257 melanoma, above 100 µM; in the test on KM12 colon, above 100 µM; with LOX IMVI melanoma, above 100 µM; with RXF 393 renal, 21.3 µM. Moreover, the GI50 is 92.1 µM in the test on MALME-3M melanoma, 25.2 µM in the test with SK-OV-3 ovarian, 70.5 µM with HL-60(TB) leukemia and 19.4 µM in the test with MDA-MB-231 breast. Moreover, the TGI in the test with NCI-H460 lung is above 100 µM; in the test with T-47D breast, above 100 µM; in the test with UACC-257 melanoma, above 100 µM; in the test with KM12 colon, above 100 µM; in the test with LOX IMVI melanoma, above 100 µM; with RXF 393 renal, 53.4 µM. For the same compound, the TGI is above 100 µM in the test on MALME-3M melanoma, 71.7 µM in the test with SK-OV-3 ovarian, above 100 µM with HL-60(TB) leukemia and 82.8 µM in the test on MDA-MB-231 breast.
`CCCCCCc1nc2nc(Cl)c(Cl)nc2[nH]1`: the GI50 in the test on NCI-H460 lung was 5.59 µM; with T-47D breast, 2.68 µM; in the test on UACC-257 melanoma, 3.02 µM; in the test on KM12 colon, 6.88 µM; with LOX IMVI melanoma, 6.24 µM; in the test with RXF 393 renal it was 7.55 µM. For the same compound, the GI50 with MALME-3M melanoma is 4.63 µM; with SK-OV-3 ovarian, above 100 µM; in the test with HL-60(TB) leukemia, 6.84 µM; in the test with MDA-MB-231 breast, 35.9 µM. Besides, the TGI with NCI-H460 lung, with T-47D breast, with UACC-257 melanoma, in the test with KM12 colon, in the test on LOX IMVI melanoma and with RXF 393 renal was above 100 µM in each case. Besides, the TGI with MALME-3M melanoma, with SK-OV-3 ovarian, in the test with HL-60(TB) leukemia and in the test with MDA-MB-231 breast was above 100 µM throughout.
With `CCN(CC)CCNc1cc(-c2cccc(OC(F)(F)F)c2)nc2ccc(N3CCCC3)cc12`, the GI50 is 1.62 µM and 1.7 µM in the test with NCI-H460 lung; 1.78 µM and 2.12 µM with T-47D breast; 1.81 µM and 1.76 µM with UACC-257 melanoma; 1.71 µM and 1.7 µM and 1.85 µM in the test on KM12 colon; 1.56 µM and 1.39 µM and 1.73 µM with LOX IMVI melanoma; 1.51 µM and 1.5 µM and 1.7 µM with RXF 393 renal. Besides, the GI50 was 1.72 µM and 2.01 µM and 1.69 µM in the test with MALME-3M melanoma; 1.69 µM and 1.88 µM and 3.01 µM with SK-OV-3 ovarian; 1.66 µM and 0.714 µM and 2 µM in the test with HL-60(TB) leukemia; 1.68 µM and 1.65 µM and 1.5 µM in the test on MDA-MB-231 breast. Moreover, the TGI with NCI-H460 lung was 3.27 µM and 3.47 µM; in the test on T-47D breast it was 4.04 µM and 4.32 µM; in the test on UACC-257 melanoma it was 3.51 µM and 3.32 µM and 3.6 µM; with KM12 colon it was 3.51 µM and 3.39 µM and 3.77 µM; with LOX IMVI melanoma, 2.96 µM and 2.73 µM and 3.19 µM; in the test on RXF 393 renal, 3.03 µM and 3.09 µM and 4.02 µM. In addition, the TGI was 3.34 µM and 3.76 µM and 3.17 µM with MALME-3M melanoma; 3.63 µM and 3.66 µM and 9.59 µM in the test with SK-OV-3 ovarian; 3.65 µM and 3.01 µM and 4.12 µM in the test with HL-60(TB) leukemia; 3.27 µM and 3.31 µM and 3.13 µM in the test on MDA-MB-231 breast.
As for `N#CS.N=C=S.N=C=S.[Cu+2].[NH2-].[NH2-].[NH2-].[NH2-].c1ccc2ncccc2c1`, the GI50 in the test on NCI-H460 lung is 22.6 µM; with T-47D breast, above 100 µM; in the test with UACC-257 melanoma, above 100 µM; in the test on KM12 colon, 31.5 µM; in the test with LOX IMVI melanoma, 43.3 µM; in the test on RXF 393 renal, 25.5 µM. For the same compound, the GI50 in the test with MALME-3M melanoma is above 100 µM; in the test on SK-OV-3 ovarian it was 24.4 µM; in the test on HL-60(TB) leukemia, above 100 µM; with MDA-MB-231 breast, 38.7 µM. The TGI with NCI-H460 lung is 48.7 µM; in the test on T-47D breast it was above 100 µM; in the test with UACC-257 melanoma, above 100 µM; in the test with KM12 colon, above 100 µM; in the test on LOX IMVI melanoma, above 100 µM; in the test with RXF 393 renal, 44 µM. Also, the TGI in the test on MALME-3M melanoma was above 100 µM; in the test with SK-OV-3 ovarian, 62.7 µM; with HL-60(TB) leukemia, above 100 µM; in the test with MDA-MB-231 breast it was 84.2 µM.
In the case of `COc1ccc2c(c1OC)OCC(CN(C)C)C2=O` (stereo not given), the TGI in the test with NCI-H460 lung is above 66.6 µM; in the test with T-47D breast it was above 62.2 µM; in the test with UACC-257 melanoma, 30.8 µM; in the test on KM12 colon it was 33.9 µM; in the test on LOX IMVI melanoma, 31.2 µM; in the test on RXF 393 renal, 30.5 µM. The TGI with MALME-3M melanoma is 34.8 µM; in the test with SK-OV-3 ovarian, above 57.3 µM; in the test with HL-60(TB) leukemia, 7.14 µM; with MDA-MB-231 breast, 34.6 µM.
On to `Cc1cn2c(/C=N/N=C(N)N)c(-c3cccnc3)nc2s1`, for which the GI50 in the test with NCI-H460 lung is 14.7 µM; in the test with T-47D breast, 1.94 µM; in the test with UACC-257 melanoma, 16.5 µM; in the test with KM12 colon, 1.58 µM; in the test on LOX IMVI melanoma it was 12.9 µM; in the test with RXF 393 renal it was 15.2 µM. Besides, the GI50 is 8.14 µM in the test with MALME-3M melanoma, 15.9 µM with SK-OV-3 ovarian, 3.8 µM in the test with HL-60(TB) leukemia and 10.1 µM in the test with MDA-MB-231 breast. Further, the TGI in the test on NCI-H460 lung came to 76.6 µM; in the test with T-47D breast, 12.1 µM; in the test with UACC-257 melanoma, 35.4 µM; in the test with KM12 colon, 7.21 µM; with LOX IMVI melanoma it was 28.7 µM; in the test with RXF 393 renal it was 59.1 µM. The TGI worked out at 21.4 µM in the test on MALME-3M melanoma, 33.3 µM with SK-OV-3 ovarian, 53.8 µM in the test with HL-60(TB) leukemia and 24.2 µM with MDA-MB-231 breast.
